Measured values as given in US20230287510A1, “COMPOSITIONS, PANELS, AND METHODS FOR CHARACTERIZING CHRONIC LYMPHOCYTIC LEUKEMIA” (The Broad Institute, Inc., priority 2020, published 2023).

Tested on: chronic lymphocytic leukemia (CLL) samples classified by expression subtype (Ec-i, EC-m1, EC-m2, EC-m3, EC-m4, EC-o, EC-u1, EC-u2)
Assay: Ex-vivo drug sensitivity (percent viability) of CLL samples compared between expression subtypes (ECs); as to Mean viability in the EC: test concentration or dose not given here; as to Mean viability in the other ECs: test concentration or dose not given here
Type: cell-based
Description: An analysis was completed to determine whether the expression clusters (ECs) can be used to predict the resistance and sensitivity of different chronic lymphocytic leukemias to various drugs. […] The expression subtypes were then used with the drug sensitivity data to compare the percent […] of samples in each expression cluster to the percent viability of samples in all other expression clusters.

Structure (SMILES)	Mean viability in the other ECs (all ECs other than EC-m4)	Mean viability in the other ECs (all ECs other than EC-u1)	Drug response associated with the EC (expression cluster EC-m4)	Mean viability in the EC (expression cluster EC-m4)	Drug response associated with the EC (expression cluster EC-u1)	Mean viability in the EC (expression cluster EC-u1)	Drug response associated with the EC (expression cluster EC-u2)	also measured
CC[C@H](Nc1ncnc2nc[nH]c12)c1nc2cccc(F)c2c(=O)n1-c1ccccc1 [idelalisib]	0.93	0.96	Resistant	0.99	Sensitive	0.90	Sensitive	Mean viability in the other ECs (all ECs other than EC-m3): 0.93; Mean viability in the other ECs (all ECs other than EC-u2): 0.95; Drug response associated with the EC (expression cluster EC-m3): Resistant; Mean viability in the EC (expression cluster EC-m3): 1.02; Mean viability in the EC (expression cluster EC-u2): 0.79
C/C=C(/C)C(=O)O[C@H]1C(C)=C2[C@H]([C@@H]1OC(=O)CCCCCCC)[C@@](C)(OC(C)=O)C[C@H](OC(=O)CCC)[C@@]1(O)[C@H]2OC(=O)[C@@]1(C)O [thapsigargin]							Resistant	Drug response associated with the EC (expression cluster EC-i): Sensitive
CN(C)C/C=C/C(=O)Nc1cc2c(Nc3ccc(F)c(Cl)c3)ncnc2cc1O[C@H]1CCOC1 [afatinib]	1.09			1.02				Mean viability in the other ECs (all ECs other than EC-m3): 1.08; Mean viability in the EC (expression cluster EC-m3): 1.03
COc1cc(N2CCC(N3CCN(C)CC3)CC2)ccc1Nc1ncc(Cl)c(Nc2ccccc2S(=O)(=O)C(C)C)n1 [TAE684]	1.01	1.03	Resistant	1.04	Sensitive	0.98		Mean viability in the other ECs (all ECs other than EC-m1): 1.01; Drug response associated with the EC (expression cluster EC-m1): Resistant; Mean viability in the EC (expression cluster EC-m1): 1.07
CC1(C)CCC(CN2CCN(c3ccc(C(=O)NS(=O)(=O)c4ccc(NCC5CCOCC5)c([N+](=O)[O-])c4)c(Oc4cnc5[nH]ccc5c4)c3)CC2)=C(c2ccc(Cl)cc2)C1 [venetoclax]		0.45			Resistant	0.54		
O=C(CCCCCCC(=O)Nc1ccccc1)NO [vorinostat]								Drug response associated with the EC (expression cluster EC-m3): Sensitive
O=C(Cc1ccc(-c2ccc(OCCN3CCOCC3)cc2)cn1)NCc1ccccc1 [KX2-391]		0.91			Sensitive	0.86		
CC1(C)CCC(c2ccc(Cl)cc2)=C(CN2CCN(c3ccc(C(=O)NS(=O)(=O)c4ccc(N[C@H](CCN5CCOCC5)CSc5ccccc5)c(S(=O)(=O)C(F)(F)F)c4)cc3)CC2)C1 [navitoclax]		0.82			Resistant	0.89		
NC1(c2ccc(-c3nc4ccn5c(=O)[nH]nc5c4cc3-c3ccccc3)cc2)CCC1 [MK-2206]	1.00	1.02	Resistant	1.04	Sensitive	0.98		Mean viability in the other ECs (all ECs other than EC-m1): 1.00; Drug response associated with the EC (expression cluster EC-m1): Resistant; Mean viability in the EC (expression cluster EC-m1): 1.07
O=c1cc(N2CCOCC2)oc2c(-c3cccc4c3sc3ccccc34)cccc12 [NU7441]			Resistant				Sensitive	
